The text below walks through data of patent US20240252488A1 (KOREA RESEARCH INSTITUTE OF CHEMICAL TECHNOLOGY, priority 2020, published 2024).

One test relates to FADD−/− Jurkat cells. Description: Necroptosis inhibition assay, TNF-α-induced necroptosis (CellTiter-Glo 2.0). Type of test: cell-based, human. Conditions: TNF-α 15 ng/mL; for Necroptosis inhibition assay (Rescue %) 1 μM: compound 1 μM; for Necroptosis inhibition assay (Rescue %) 10 μM: compound 10 μM. The essentials: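 FADD−/− Jurkat cells preincubated 30 min at room temperature with compound at 0.1, 1 and 10 μM final, then stimulated with TNF-α (15 ng/mL final) for 20–24 h at 37 °C, 5% CO2. Viability read as ATP luminescence; cytotoxicity and necroptosis inhibition rate calculated from luminescence values.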
For orientation: In ATP-based viability assays light output follows the ATP content of the culture.

The target in test [1] is T1, MLKL (Homo sapiens, UniProt Q8NB16).
T1 sequence (Q8NB16 1-471): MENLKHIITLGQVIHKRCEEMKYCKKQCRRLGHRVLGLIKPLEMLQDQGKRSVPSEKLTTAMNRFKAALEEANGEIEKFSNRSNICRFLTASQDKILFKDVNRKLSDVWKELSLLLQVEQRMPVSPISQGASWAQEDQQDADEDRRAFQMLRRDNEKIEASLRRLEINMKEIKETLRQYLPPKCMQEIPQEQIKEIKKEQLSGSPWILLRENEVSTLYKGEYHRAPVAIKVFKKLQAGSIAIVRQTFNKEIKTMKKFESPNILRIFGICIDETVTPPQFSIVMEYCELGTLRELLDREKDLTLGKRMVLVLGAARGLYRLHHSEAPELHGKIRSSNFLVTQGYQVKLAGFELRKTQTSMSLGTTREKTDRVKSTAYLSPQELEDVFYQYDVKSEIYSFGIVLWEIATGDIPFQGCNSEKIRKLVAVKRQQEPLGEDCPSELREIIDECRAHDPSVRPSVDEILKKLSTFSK
Description: MLKL degradation assay in HepG2 cell line (western blot). Type of test: cell-based. The arrangement: endogenous in cells; host or cells: HepG2 or HaCaT. The following applies: cell line not given; for Degradation assay (Degradation %) 1 μM: compound 1 μM; for Degradation assay (Degradation %) 10 μM: compound 10 μM. The essentials: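 HepG2 cells were treated 20-24 h at 37 °C with compound at 1 or 10 μM final. RIPA lysates were normalized by BCA, and 10-15 μg protein per lane was resolved by SDS-PAGE. MLKL was detected by western blot with chemiluminescence.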
Background: A western blot detects proteins with antibodies after separation by electrophoresis.

Test [2] concerns the target T1, MLKL. Put plainly: Measurement of binding affinity with MLKL receptor (competitive binding assay, Kd). The arrangement: made in house; host or cells: HEK 293 cell line (T7 phage in E. coli BL21-derived host is also described). The essentials: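 qPCR of MLKL eluted from liganded beads served as the read-out, from which Kd was derived. The protein was made in HEK 293 cells with a DNA tag, and test compounds competed with the bead-bound ligand at 0.9% final DMSO.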

One may read the Kd as the constant that tells how readily two partners part at equilibrium. A low value points to a tighter complex. As for `Nc1ncc(-c2cnn(C3CCN(CCOCCNc4ccc5c(c4)C(=O)N(C4CCC(=O)NC4=O)C5=O)CC3)c2)nc1C(=O)O[C@@H](C(=O)Nc1ccc(F)cc1)c1ccccc1` (stereo partly drawn) [TDH-131, (R)-2-((4-fluorophenyl)amino)-2-oxo-1-phenylethyl 3-amino-6-(1-(1-(2-(2-((2-(2,6-dioxopiperidin-3-yl)-1,3-dioxoisoindolin-5-yl)amino)ethoxy)ethyl)piperidin-4-yl)-1H-pyrazol-4-yl)pyrazine-2-carboxylate], in the test on FADD−/− Jurkat cells, the “Necroptosis inhibition assay (Rescue %) 1 μM” value was 24.56% and the “Necroptosis inhibition assay (Rescue %) 10 μM” value turned out to be 0.96%. For the same molecule, at MLKL [1], the “Degradation assay (Degradation %) 1 μM” value stood at 51.13% and the “Degradation assay (Degradation %) 10 μM” value came out at 47.86%. This molecule displayed a Kd at MLKL [2] of 3.9 nM.
On to `Nc1ncc(-c2cnn(C3CCN(C(=O)C4CCN(C(=O)C5CCN(c6cccc7c6C(=O)N(C6CCC(=O)NC6=O)C7=O)CC5)CC4)CC3)c2)nc1C(=O)OC(C(=O)Nc1ccc(F)cc1)c1ccccc1` (centres unmarked) [TDH-273, 2-((4-fluorophenyl)amino)-2-oxo-1-phenylethyl 3-amino-6-(1-(1-(1-(1-(2-(2,6-dioxopiperidin-3-yl)-1,3-dioxoisoindolin-4-yl)piperidine-4-carbonyl)piperidine-4-carbonyl)piperidin-4-yl)-1H-pyrazol-4-yl)pyrazine-2-carboxylate], for which, in the test with FADD−/− Jurkat cells, the “Necroptosis inhibition assay (Rescue %) 1 μM” value was 54.02% and the “Necroptosis inhibition assay (Rescue %) 10 μM” value worked out at 34.08%. At MLKL [1], the “Degradation assay (Degradation %) 1 μM” value was found to be 77.5% and the “Degradation assay (Degradation %) 10 μM” value is reported as 61.88%. This molecule returned a Kd at MLKL [2] of 3.5 nM.
Turning to `Nc1ncc(-c2cnn(C3CCN(CC4CCN(C(=O)CNc5ccc6c(c5)C(=O)N(C5CCC(=O)NC5=O)C6=O)CC4)CC3)c2)nc1C(=O)N[C@@H](C(=O)Nc1ccc(F)cc1)c1ccccc1` (stereo partly drawn) [TDH-207, 3-amino-6-(1-(1-((1-((2-(2,6-dioxopiperidin-3-yl)-1,3-dioxoisoindolin-5-yl)glycyl)piperidin-4-yl)methyl)piperidin-4-yl)-1H-pyrazol-4-yl)-N-((R)-2-((4-fluorophenyl)amino)-2-oxo-1-phenylethyl)pyrazine-2-carboxamide], in the test on FADD−/− Jurkat cells, the “Necroptosis inhibition assay (Rescue %) 1 μM” value was determined as 28.69% and the “Necroptosis inhibition assay (Rescue %) 10 μM” value was 32.45%. On MLKL [1], the “Degradation assay (Degradation %) 1 μM” value was determined as 17.98% and the “Degradation assay (Degradation %) 10 μM” value worked out at 24.18%. Besides, binding on MLKL [2] was put at a Kd of 210 nM.
For `Nc1ncc(-c2cnn(C3CCN(C(=O)COCCOCCNC(=O)C4CCN(c5cccc6c5C(=O)N(C5CCC(=O)NC5=O)C6=O)CC4)CC3)c2)nc1C(=O)O[C@@H](C(=O)Nc1ccc(F)cc1)c1ccccc1` (stereo partly drawn) [TDH-194, (R)-2-((4-fluorophenyl)amino)-2-oxo-1-phenylethyl 3-amino-6-(1-(1-(2-(2-(2-(1-(2-(2,6-dioxopiperidin-3-yl)-1,3-dioxoisoindolin-4-yl)piperidine-4-carboxamido)ethoxy)ethoxy)acetyl)piperidin-4-yl)-1H-pyrazol-4-yl)pyrazine-2-carboxylate] the same measures were 67.94%, 58.3%, 33.12%, 18.24% and 6.7 nM.
